# Values quoted from earlier work as cited in patent US20170360735A1, “INGESTIBLE EMULSION MATRIX FOR DELIVERY OF CREATINE” (DreamPak, priority 2016, published 2017).
# Read-outs that look alike come from different tables or passages of the source.
# What was measured:
# [1] = ingestion of 20-30 g creatine per day for several days
# [2] = oral, estimated
substance,measurement,setting,value
N-(aminoiminomethyl)-N-methylglycine [creatine],increase in human skeletal muscle creatine content,[1],greater than 20%
same,absorption rate from the gastrointestinal (GI) tract,[2],1-14%
same,creatine dissolved in water,at 70° F.,about 1.4%
same,creatine dissolved in water,at 120° F.,about 4.5%
